From article PMC4437653, “Biochemical, Kinetic, and Spectroscopic Characterization of Ruegeria pomeroyi DddW—A Mononuclear Iron-Dependent DMSP Lyase” (PLoS ONE, 2015)

Columns and labels:
[1] = target: T1, DddW (Ruegeria pomeroyi, UniProt Q5LW89, H121A); assay: HPLC of acrylate product at […] nm, […] min end point; type: biochemical; conditions: 2 uM enzyme, 2 uM Fe(II), 10 mM DMSP, anaerobic
T1 construct: E. coli BL21Star DE3 pLysS; EDTA-treated apo enzyme loaded with metal; homodimer; cloning primers encode MTAMLDSF at the N-terminus and RFTASA at the C-terminus
T1 sequence (Q5LW89 whole entry H121A): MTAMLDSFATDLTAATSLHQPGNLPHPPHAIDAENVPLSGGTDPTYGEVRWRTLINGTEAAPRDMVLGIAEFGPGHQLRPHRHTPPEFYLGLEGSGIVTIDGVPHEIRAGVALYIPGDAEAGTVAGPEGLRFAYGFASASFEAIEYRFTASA

[2] = target: T2, DddW (Ruegeria pomeroyi, UniProt Q5LW89, E87A); assay: HPLC of acrylate product at […] nm, […] min end point; type: biochemical; conditions: 2 uM enzyme, 2 uM Fe(II), 10 mM DMSP, anaerobic
T2 construct: E. coli BL21Star DE3 pLysS; EDTA-treated apo enzyme loaded with metal; homodimer; cloning primers encode MTAMLDSF at the N-terminus and RFTASA at the C-terminus
T2 sequence (Q5LW89 whole entry E87A): as the sequence (Q5LW89 whole entry H121A) above, with E87A, A121H counted along it

[3] = target: T3, DddW (Ruegeria pomeroyi, UniProt Q5LW89, H83A); assay: HPLC of acrylate product at […] nm, […] min end point; type: biochemical; conditions: 2 uM enzyme, 2 uM Fe(II), 10 mM DMSP, anaerobic
T3 construct: E. coli BL21Star DE3 pLysS; EDTA-treated apo enzyme loaded with metal; homodimer; cloning primers encode MTAMLDSF at the N-terminus and RFTASA at the C-terminus
T3 sequence (Q5LW89 whole entry H83A): as the sequence (Q5LW89 whole entry H121A) above, with H83A, A121H counted along it

[4] = target: T4, DddW (Ruegeria pomeroyi, UniProt Q5LW89, H81A); assay: HPLC of acrylate product at […] nm, […] min end point; type: biochemical; conditions: 2 uM enzyme, 2 uM Fe(II), 10 mM DMSP, anaerobic
T4 construct: E. coli BL21Star DE3 pLysS; EDTA-treated apo enzyme loaded with metal; homodimer; cloning primers encode MTAMLDSF at the N-terminus and RFTASA at the C-terminus
T4 sequence (Q5LW89 whole entry H81A): as the sequence (Q5LW89 whole entry H121A) above, with H81A, A121H counted along it

[5] = target: the molecule itself; assay: SEC; as-isolated apo-DddW (19 mg/mL) on Superdex 200 16/600 in storage buffer (50 mM HEPES pH 7.5, 100 mM NaCl, 10% glycerol), 0.6 mL/min; mass by comparison with standards
[6] = substrate: C[S+](C)CCC(=O)[O-]; assay: purified protein; type: biochemical, Ruegeria pomeroyi; conditions: 2 uM apo-DddW with 2 uM Fe(II), pH 8.0, 50 mM HEPES, 20 mM NaCl, room temperature, anaerobic, DMSP 0.5-35 mM

Molecule: C[S+](C)CCC(=O)[O-] [DMSP]
- no acrylate product formed [1]: none of the DddW mutants formed the acrylate product compared to the wild-type enzyme
- no acrylate product formed [2]: none of the DddW mutants formed the acrylate product compared to the wild-type enzyme
- no acrylate product formed [3]: none of the DddW mutants formed the acrylate product compared to the wild-type enzyme
- no acrylate product formed [4]: none of the DddW mutants formed the acrylate product compared to the wild-type enzyme

B1: Ruegeria pomeroyi DSS-3 DddW (DMSP lyase), N-terminally His-tagged, apo form (enzyme, UniProt Q5LW89 1-152, looked up)
chain: MTAMLDSFATDLTAATSLHQPGNLPHPPHAIDAENVPLSGGTDPTYGEVRWRTLINGTEAAPRDMVLGIAEFGPGHQLRPHRHTPPEFYLGLEGSGIVTIDGVPHEIRAGVALYIPGDAEHGTVAGPEGLRFAYGFASASFEAIEYRFTASA
notes: DddW, DMSP lyase of Ruegeria pomeroyi DSS-3 (locus SPO0453), 16.9 kDa without tag; No removal of the His10 tag is described; also called apo-DddW; SPO0453; source: E. coli BL21Star DE3 pLysS, purified (Ni-NTA), dialysed against EDTA to give apo-DddW
- stoichiometry N [5]: 2
- Km [6]: 8.68 ± 0.73 mM
- kcat [6]: 18.25 s⁻¹
